From EP0677293A1, “PHARMACEUTICAL USE OF TERPYRIDINE DERIVATIVE” (priority 1992, dated 1994)
Like-named read-outs stand apart in the source and are kept apart here.

Columns and labels:
[1] = tested on: Cerebral cortical neuronal cells from an 18-day-old rat embryo; assay: Test on neurotrophic activity (living cells counted by fluorescein diacetate fluorescence, with or without hypoxic load); format: cell-based
Description: The neurotrophic activity was determined by the following method. Each compound was dissolved in DMSO to adjust the concentration in the range of 2 mg/ml to 10 mg/ml. Cerebral cortical neuronal cells from an 18-day-old rat embryo […] After 24 hours of incubation, the culture medium was removed and a 0.5 ml/well aliquot of a serum-free fresh DF medium containing the respective compounds having various concentrations, 5 µg/ml of transferrin, 5 µg/ml of insulin and 20 pmoles/ml of progesterone was supplemented to the system. For the purpose of comparison, the medium containing only DMSO was added was also prepared. At this stage, the two same plates were used. After 72 hours of incubation in various medium, hypoxia was loaded on one plate by reducing the concentration of oxygen to the minimum concentration of 1% using a N₂-O₂-CO₂ incubator (manufactured by Tabai, Model BNP-100) and culturing for 4 hours under the conditions. Another plate was cultured in an atmosphere of 5% CO₂ and 95% air, without hypoxic load. After the incubation was continued for further 48 hours, living cells were counted. The culture medium was removed and fluorescein diacetate (FDA) reagent was reacted. After washing with phosphate buffer, pH 7.4, the fluorescent intensity (E x 485/Em 530) was measured by CytoFlour^TM 2300, manufactured by Millipore.

[2] = tested on: Astroglial cells derived from the mouse forebrain; assay: Synthesis-stimulating activity on NGF (NGF level in culture medium by enzyme immunoassay); format: cell-based; conditions: Mus musculus, 24 h; for fold induction at 2 µg/mL / fold induction at 50 µg/mL: read-out: Synthesis-Stimulating Activity on NGF
Description: The activity of accelerating secretion of NGF was evaluated by the following method.
Each compound shown in Table 1 was dissolved in dimethylsulfoxide (DMSO) to adjust the concentration in the range of 2 mg/ml to 10 mg/ml.
Astroglial cells derived from the mouse forebrain (cells that synthesize and secrete NGF)
Astroglial cells obtained from the mouse forebrain were cultured into 8 x 10⁵ cells/ml in Dulbecco's modified Eagle's medium obtained from Gibco, glucose-rich, containing 20% fetal calf serum, 100 units/ml of penicillin and 100 µg/ml of streptomycin. A 0.1 ml/well aliquot was inoculated on a 96-well plate obtained from Falcon and having an area of 0.32 cm² per well and cultured at 37°C in an atmosphere of 5% CO₂. The culture medium was removed 72 hours later and instead, a 0.1 ml/well aliquot of fresh Dulbecco's modified Eagle's medium containing 0.5% bovine albumin powders obtained from Armour, 100 units/ml of penicillin and 100 µg/ml of streptomycin was supplemented to the system followed by culturing at 37°C in 5% CO₂. The above medium containing the compound each having various concentrations was exchanged 72 hours later. For the purpose of comparison, the medium which contains only DMSO was also prepared (control).
The synthesis-stimulating activity on NGF by the compound of the present invention is shown in terms of a ratio when the NGF level in the control containing only DMSO was made 1.0.

[3] = no hypoxic load, ratio of fluorescent intensity to DMSO control = 1.0, read-out: Neurotrophic Activity No Hypoxic Load
[4] = 4 h, hypoxic load (1% oxygen, 4 hours), ratio of fluorescent intensity to DMSO control = 1.0, read-out: Neurotrophic Activity Hypoxic Load
[5] = 2 µg/ml, ratio to DMSO control = 1.0, 24 hours
[6] = 50 µg/ml, ratio to DMSO control = 1.0, 24 hours

| Compound | viability at 2 µg/mL [1, 3] [%] | viability at 2 µg/mL [1, 4] [%] | fold induction at 10 µg/mL ([2]; ratio to DMSO control = 1.0) | fold induction at 100 µg/mL ([2]; ratio to DMSO control = 1.0) | fold induction at 2 µg/mL [2, 5] | fold induction at 50 µg/mL [2, 6] | fold induction at 20 µg/mL ([2]; ratio to DMSO control = 1.0) | viability at 10 µg/mL [1, 3] [%] | viability at 10 µg/mL [1, 4] [%] | further results |
| --- | --- | --- | --- | --- | --- | --- | --- | --- | --- | --- |
| Nc1cccc(-c2cc(-c3ccccn3)nc(-c3ccccn3)c2)c1 [Compound 18, 4'-(3-Aminophenyl)-2,2':6',2''-terpyridine] | 110 | 140 | 5.7 | 4.6 |  |  |  |  |  | fold induction at 30 µg/mL ([2]; ratio to DMSO control = 1.0): 2 |
| Cc1cccc(-c2cc(-c3ccccn3)nc(-c3ccccn3)c2)c1 [Compound 4, 4'-(3-Methylphenyl)-2,2':6',2''-terpyridine] | 170 | 180 | 1.3 |  | 1.8 | 1.2 |  |  |  |  |
| COc1ccc(-c2cc(-c3ccccn3)nc(-c3ccccn3)c2)cc1 [Compound 13, 4'-(4-Methoxyphenyl)-2,2':6',2''-terpyridine] | 180 | 70 |  | 1.8 |  |  | 1.7 |  |  |  |
| BrCc1ccc(-c2cc(-c3ccccn3)nc(-c3ccccn3)c2)cc1 [Compound 21, 4'-(4-Bromomethylphenyl)-2,2':6',2''-terpyridine] | 140 | 200 |  | 5.2 |  |  | 2.7 |  |  |  |
| CCc1ccc(-c2cc(-c3ccccn3)nc(-c3ccccn3)c2)cc1 [Compound 7, 4'-(4-Ethylphenyl)-2,2':6',2''-terpyridine] |  |  | 1 |  | 2.9 | 1.2 |  |  |  |  |
| c1ccc(-c2cc(-c3ccc(Cn4cccc4)cc3)cc(-c3ccccn3)n2)nc1 [Compound 22, 4'-[4-(1-pyrrorylmethyl)phenyl]-2,2':6',2''-terpyridine] | 120 | 100 | 1.1 |  | 1.7 |  |  | 170 | 180 |  |
| Clc1ccc(-c2cc(-c3ccccn3)nc(-c3ccccn3)c2)cc1 [Compound 11, 4'-(4-Chlorophenyl)-2,2':6',2''-terpyridine] | 170 | 160 |  |  |  | 2.2 |  | 130 | 140 | fold induction at 5 µg/mL ([2]; ratio to DMSO control = 1.0): 4.7; fold induction at 17 µg/mL ([2]; 17 µg/ml, ratio to DMSO control = 1.0): 3.4 |
| c1ccc(-c2cc(-c3ccccn3)nc(-c3ccccn3)c2)cc1 [Compound 2, 4'-Phenyl-2,2':6',2''-terpyridine] | 180 | 170 |  | 2.2 |  |  | 2.6 | 130 | 50 |  |
| CCCCCCCCC(CCCCCCCC)c1cc[n+](Cc2ccc(-c3cc(-c4ccccn4)nc(-c4ccccn4)c3)cc2)cc1 [Compound 28, 4-(1-Octylnonyl)-1-[4-(2,2':6',2''-terpyridin-4'-yl)phenylmethyl]pyridinium bromide] | 260 | 310 |  | 2.5 |  |  | 3.6 | 130 | 380 |  |
| O=C(O)c1ccc(-c2cc(-c3ccccn3)nc(-c3ccccn3)c2)cc1 [Compound 19, 4-(2,2':6',2''-Terpyridin-4'-yl)benzoic acid] |  |  | 2.4 |  | 2.4 | 3.6 |  |  |  |  |
| c1cc[n+](Cc2ccc(-c3cc(-c4ccccn4)nc(-c4ccccn4)c3)cc2)cc1 [Compound 25, 1-[4-(2,2':6',2''-Terpyridin-4'-yl)phenylmethyl]pyridinium bromide] | 140 | 110 | 1.1 |  | 1.2 | 2.9 |  |  |  |  |
| CCOc1ccc(-c2cc(-c3ccccn3)nc(-c3ccccn3)c2)cc1 [Compound 14, 4'-(4-Ethoxyphenyl)-2,2':6',2''-terpyridine] |  |  | 4.8 |  | 2.1 | 2.9 |  |  |  |  |
| CCCCCCCCCCCC[N+](C)(C)Cc1ccc(-c2cc(-c3ccccn3)nc(-c3ccccn3)c2)cc1 [Compound 24, N-Dodecyl-N,N-dimethyl-N-[4-(2,2':6',2''-terpyridin-4'-yl)phenylmethyl]ammonium bromide] | 200 | 190 |  |  |  |  |  |  |  | fold induction at 2 µg/mL [2]: 2.1; fold induction at 50 µg/mL [2]: 1 |
| CCCCCCCCCCCCCCCCCc1cc[n+](Cc2ccc(-c3cc(-c4ccccn4)nc(-c4ccccn4)c3)cc2)cc1 [Compound 27, 4-Heptadecyl-1-[4-(2,2':6',2''-terpyridin-4'-yl)phenylmethyl]pyridinium bromide] | 200 | 150 |  | 1.2 |  |  | 1 | 190 | 200 |  |
| Cc1ccccc1-c1cc(-c2ccccn2)nc(-c2ccccn2)c1 [Compound 3, 4'-(2-Methylphenyl)-2,2':6',2''-terpyridine] | 240 | 280 | 2.9 |  | 1.5 |  |  | 150 | 140 |  |
| O=[N+]([O-])c1cccc(-c2cc(-c3ccccn3)nc(-c3ccccn3)c2)c1 [Compound 17, 4'-(3-Nitrophenyl)-2,2':6',2''-terpyridine] |  |  |  | 2.8 |  |  | 1 |  |  |  |
| OCCOc1ccc(-c2cc(-c3ccccn3)nc(-c3ccccn3)c2)cc1 [Compound 15, 2-[4-(2,2':6',2''-Terpyridin-4'-yl)phenoxy]ethanol] |  |  |  | 4.2 |  |  | 1.7 |  |  |  |
| CC(C)c1ccc(-c2cc(-c3ccccn3)nc(-c3ccccn3)c2)cc1 [Compound 8, 4'-(4-Isopropylphenyl)-2,2':6',2''-terpyridine] |  |  | 3.2 |  | 1.7 | 2.4 |  |  |  |  |
| Oc1ccccc1-c1cc(-c2ccccn2)nc(-c2ccccn2)c1 [Compound 12, 2-(2,2':6',2''-Terpyridin-4'-yl)phenol] |  |  |  | 3 |  |  | 3.7 |  |  |  |
| CCCCCCCCCc1cc[n+](Cc2ccc(-c3cc(-c4ccccn4)nc(-c4ccccn4)c3)cc2)cc1 [Compound 26, 4-Nonyl-1-[4-(2,2':6',2''-terpyridin-4'-yl)phenylmethyl]pyridinium bromide] | 160 | 140 |  | 3 |  |  | 3 | 140 | 130 |  |
| c1ccc(-c2cccc(-c3ccccn3)n2)nc1 [Compound 1] | 270 | 140 |  |  |  |  |  | 320 | 220 | fold induction at 1 µg/mL ([2]; 1 µg/ml, ratio to DMSO control = 1.0): 2.3; fold induction at 5 µg/mL ([2]; ratio to DMSO control = 1.0): 3.5 |
| C[N+](C)(C)Cc1ccc(-c2cc(-c3ccccn3)nc(-c3ccccn3)c2)cc1 [Compound 23, N,N,N-Trimethyl-N-[4-(2,2':6',2''-terpyridin-4'-yl)phenylmethyl]ammonium bromide] | 250 | 300 | 3.2 | 1.3 |  |  |  | 130 | 160 | fold induction at 30 µg/mL ([2]; ratio to DMSO control = 1.0): 5.6 |
